{"source": "patent US20260166121A1", "about": "“COMPOSITIONS AND METHODS FOR THE TREATMENT OF HEMORRHAGIC SHOCK” (Children's Hospital Medical Center, priority 2022, published 2026)", "tested_on": "AMPKα1 wild-type (WT) and knockout (KO) mice", "assay": "Survival analysis up to 7 days after hemorrhagic shock", "format": "in vivo", "conditions": "100 μg/kg intra-arterially at resuscitation, subcutaneously at 24 h and 48 h, compared to vehicle treatment", "description": "Preparation of PEGylated humanin-G and survival analysis. In separate groups of mice survival studies were conducted. For these studies, we generated a longer-acting humanin-G by covalent conjugation of polyethylene glycol (PEG). Briefly, humanin-G was conjugated (1:1 molar ratio) to generate a non-cleavable PEGylated humanin-G. Humanin-G was dissolved in phosphate-buffered saline, pH 7.4, with 5 mM EDTA and mixed at room temperature with an equal volume of DMSO containing PEG-maleimide and left overnight (26). The product, PEGylated humanin-G (PEG10 kDa) was purified by size-exclusion chromatography with a 50 mM ammonium acetate buffer. Mice were subjected to hemorrhagic shock as described above. Mice received PEGylated humanin-G (100 μg/kg, intra-arterially) as a single dose at 90 minutes after blood removal at the time of resuscitation. Three hours after resuscitation, the femoral artery was occluded, and the skin incision was closed in layers. Mice were then allowed to awaken from anesthesia. Mice then received a second and a third dose of PEGylated humanin-G (100 μg/kg, subcutaneously) at 24 hours and 48 hours thereafter. Mice also received further fluid resuscitation (0.5 mL of Lactated Ringer's solution subcutaneously) at 6 hours and 24 hours following hemorrhagic shock. […] Mice were then monitored for survival for 7 days. […]", "note": "Ends that are not written are not given here.", "data": [{"substance": "PEGylated humanin-G: non-cleavable PEGylated humanin-G, humanin-G conjugated 1:1 molar ratio with PEG-maleimide (PEG10 kDa) (MAPRGFSCLLLLTGEIDLPVKRRA; not fully specified (residue 8); also: PEG 10 kDa maleimide conjugate, attachment site not given here; UniProt Q8IVG9 1-24, looked up, variant S14G)", "values": [{"measurement": "survival", "result": "significantly ameliorated"}]}]}
